Series [1] deals with T1, STS (Homo sapiens, UniProt P08842).
T1 sequence (P08842 22-583): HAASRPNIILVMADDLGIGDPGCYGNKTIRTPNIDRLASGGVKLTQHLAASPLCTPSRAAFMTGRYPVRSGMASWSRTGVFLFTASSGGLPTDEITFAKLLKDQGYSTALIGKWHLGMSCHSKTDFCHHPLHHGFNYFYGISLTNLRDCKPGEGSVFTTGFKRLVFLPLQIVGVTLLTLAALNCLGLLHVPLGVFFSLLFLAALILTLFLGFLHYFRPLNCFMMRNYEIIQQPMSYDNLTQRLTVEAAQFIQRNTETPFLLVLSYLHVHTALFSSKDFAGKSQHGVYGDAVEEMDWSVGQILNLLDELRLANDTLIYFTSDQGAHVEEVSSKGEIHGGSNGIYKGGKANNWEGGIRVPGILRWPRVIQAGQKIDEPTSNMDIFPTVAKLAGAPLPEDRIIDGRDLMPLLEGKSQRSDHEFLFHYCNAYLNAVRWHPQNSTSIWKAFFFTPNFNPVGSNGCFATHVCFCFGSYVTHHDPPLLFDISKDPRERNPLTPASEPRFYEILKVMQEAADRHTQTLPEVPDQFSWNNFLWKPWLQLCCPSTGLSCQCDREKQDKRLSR
The following applies: cited from earlier work.

The nature of series [2]: Serum hormonal profile (E2, P4, T, D4A) by ELISA. The format is in vivo, healthy pre-menopausal women. Conditions: for mean concentration-time profiles for D4A / mean concentration-time profiles for T: after multiple dose administration; for E2 concentrations / P4 concentrations: mean concentration-time profile, suppression during the first cycle up to Day 29, normal increase on Day 43.
Protocol: (§1) Blood samples were collected from each subject in order to determine pharmacodynamic parameters (sulfatase activity and hormonal profile).
(§2) STS activity was determined by spiking specimens with labelled EI-S and by measuring its conversion to E1 per gram protein under standardized incubation conditions using LC-MS/MS. Protein concentration was evaluated with a validated colorimetric assay (Bradford method). The serum samples for hormonal profile were analysed by specific and validated ELISA methods.

The test system of series [3] is STS activity. From the text:
The above effect is confirmed on functional biomarkers of STS activity for at least 84 days. As described before, STS converts sulphate precursors of estrogens. Thus, by inhibiting STS activity a reduction in serum levels of estrone and DHEA and an increase in estrone sulphate and DHEA sulphate are expected. This effect is described by baseline corrected fold-changes of the E1-S to E1 and DHEA-S to DHEA ratios over time (study days).

In series [4] the target is T1, STS. The following applies: cited from earlier work. The source holds these as a separate data set.
The target of series [5] is T1, STS. The experiment in a line: in vivo.
Protocol: (§3) Blood samples were collected from each subject in order to determine pharmacodynamic parameters (sulfatase activity and hormonal profile). Ovarian and endometrium transvaginal ultrasounds throughout the study and an endometrial biopsy were performed.
(§4) The biopsy was scheduled between 5 to 8 days before the anticipated onset of the next menstrual cycle after treatment and 1 month after treatment cessation.
(§5) STS activity was determined by spiking specimens with labelled EI-S and by measuring its conversion to E1 per gram protein under standardized incubation conditions using LC-MS/MS. Protein concentration was evaluated with a validated colorimetric assay (Bradford method).
Series [6] deals with T1, STS. The following applies: for AVG [%]: Average inhibition of Steroid Sulfatase in endometrium, Mean (SD), N = 8.
Protocol: as §3, §4, §5
For series [7] the following is noted: multiple doses of 4 mg E2MATE, 10 mg NETA, for 4 weeks.
Series [8] addresses STS (Mus musculus, UniProt P50427). The following applies: mice, cited from earlier work.
A short description of series [9]: Follow-up effect on post-treatment menstruation cycles (ovarian and transvaginal ultrasound). From the text:
Menstruation cycle length was not influenced by the treatment. […] Sizes of right and left ovary differed slightly for each subject, but no clinically relevant changes were identified by the gynaecologists.

The target in series [10] is T1, STS. The series can be described thus: STS activity in PBMCs (Phase I study, labelled E1-S conversion to E1, LC-MS/MS).
Protocol: as §1, §2
The target of series [11] is T1, STS. The following applies: in vivo.
Protocol: as §1, §2
The mark [12] stands for this setting: maximum during the NETA treatment period (values of days 8 to 29).
Setting [13] is: daily oral 0.5 or 1 mg/kg for 21 days, end of the treatment.

Like-named read-outs stand apart in the source and are kept apart here. Where only a bound is given, the exact number is not on record here.

What is called Emax is the greatest response seen or fitted, relative to the assay's reference. The inhibition is the relative decrease from the control value, in per cent.

STS (Mus musculus, UniProt P50427), sequence (P50427 23-624): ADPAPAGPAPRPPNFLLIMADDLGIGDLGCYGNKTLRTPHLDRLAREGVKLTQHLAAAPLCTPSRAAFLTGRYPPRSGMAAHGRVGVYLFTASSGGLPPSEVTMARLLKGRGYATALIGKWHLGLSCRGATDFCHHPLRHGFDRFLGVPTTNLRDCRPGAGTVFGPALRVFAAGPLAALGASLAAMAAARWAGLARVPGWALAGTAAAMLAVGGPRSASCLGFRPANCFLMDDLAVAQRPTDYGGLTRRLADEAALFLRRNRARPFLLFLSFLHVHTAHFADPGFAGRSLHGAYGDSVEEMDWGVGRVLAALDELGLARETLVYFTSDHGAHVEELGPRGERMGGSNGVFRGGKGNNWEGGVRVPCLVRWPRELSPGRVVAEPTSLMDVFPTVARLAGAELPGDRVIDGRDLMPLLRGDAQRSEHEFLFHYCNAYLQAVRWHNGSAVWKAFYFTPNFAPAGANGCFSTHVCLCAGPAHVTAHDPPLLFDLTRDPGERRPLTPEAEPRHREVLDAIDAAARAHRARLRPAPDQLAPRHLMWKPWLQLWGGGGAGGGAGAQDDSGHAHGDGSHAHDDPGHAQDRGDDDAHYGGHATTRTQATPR

Regarding `NS(=O)(=O)Oc1ccc2c3c(c(=O)oc2c1)CCCCC3`, the “blocking STS activity in both eutopic and ectopic tissues” value in series [1] is “effective”.

Take `C[C@]12CC[C@@H]3c4ccc(OS(N)(=O)=O)cc4CC[C@H]3[C@@H]1CC[C@@H]2O` [E2MATE, Estradiol-3-o-sulfamate]: in series [2], the “mean concentration-time profiles for D4A” value is “No relevant differences”. In [2], the “mean concentration-time profiles for T” value was “No relevant differences”. Further, in series [2], the E2 concentrations result is given as “Normal mean concentration-time profiles”. Further, the P4 concentrations entry in [2] was “Normal mean concentration-time profiles”. In addition, the “Baseline relative change of the DHEA-S / DHEA [%]” value in series [3] (Day 1) turned out to be 0%; in series [3] (Day 8), 133%; in [3] (Day 15), 116%; in series [3] (Day 22), 113%; in series [3] (Day 29) it was 148%; in [3] (Day 57) it was 195%. For the same compound, the “Baseline relative change of the DHEA-S / DHEA [%]” value was determined as 232% in series [3] (Day 85) and 175% in [3] (Day 113). Also, the “Baseline relative change of the E1-S / E1 [%]” value in [3] (Day 1) stood at 0%; in series [3] (Day 8), 208%; in series [3] (Day 15), 282%; in series [3] (Day 22), 218%; in series [3] (Day 29), 194%; in [3] (Day 57) it was 218%. Moreover, the figures for the “Baseline relative change of the E1-S / E1 [%]” value in [3] (Day 85) and in series [3] (Day 113) were 243% and 400%, respectively. For the same compound, the “DHEA-S to DHEA ratios increased” value in [3] (setting [12]) was “up to 265%”. For the same compound, the “baseline relative mean increases of the E1-S to E1 ratio” value in series [3] (setting [12]) is on record as “up to 282%”. In addition, the STS inhibitor activity result in series [4] is “active STS inhibitors”. Moreover, in series [5] (read-out: Emax (maximal observed effect)), the Emax turned out to be 91%. The inhibition at 4 mg in series [5] (read-out: STS inhibition in endometrium) was found to be 91%. The “AVG [%]” value in series [6] was 66.6 (2.7) %. In series [6] (STS inhibition in endometrium samples), the “AVG (average effect over time (AUC))” value is listed as 66.60%. The After treatment in series [6] (STS inhibition in endometrium samples, second row of Table 2) is 87.50%. In series [7], the tolerability result was “well tolerated”. In addition, the “lesion weight and size” value in [8] (setting [13]) is “decreased”. For the same compound, the number of lesions result in [8] (setting [13]) is on record as “without a reduction”. Besides, in series [8] (daily oral dose, highest dose (1 mg/kg) for 21 days), the “STS activity inhibition in the uterus or in induced lesions” value is no more than 36%. In addition, the “effect on ovarian size” value in series [9] is given as “no apparent effect”.

Take `C[C@]12CC[C@@H]3c4ccc(OS(N)(=O)=O)cc4CC[C@H]3[C@@H]1CCC2=O` [EMATE, Estrone-3-o-sulfamate]: the STS inhibitor activity result in series [4] is recorded as “active STS inhibitors”.

`C#C[C@]1(OC(C)=O)CC[C@H]2[C@@H]3CCC4=CC(=O)CC[C@@H]4[C@H]3CC[C@@]21C` [NETA, norethindrone acetate, reference compound]: in series [2], the “mean concentration-time profiles for D4A” value is on record as “No relevant differences”, the “mean concentration-time profiles for T” value was “No relevant differences”, the E2 concentrations entry is given as “suppressed” and the P4 concentrations result is “suppressed”. Further, the Emax in series [5] was 46.7%. Moreover, the “AVG [%]” value in series [6] is 14.9 (27.0) %. The average inhibition in series [10] amounted to 4%. The same compound registered an inhibition in series [11] of 12%. Moreover, the “effect on ovarian size” value in [9] is recorded as “no apparent effect”.

The values are drawn from patent publication EP2647379A1, “Combined use of a steroid sulfatase inhibitor for the treatment of endometriosis” (PregLem S.A., priority 2012, dated 2013).
